For assay [1], the target named is T1, Myt1 kinase (CDK1 Thr14 phosphorylation in ACHN renal cell carcinoma cells) (Homo sapiens, UniProt Q99640).
T1 construct: pCDK1 Thr14 AlphaLISA read-out
T1 sequence (Q99640 1-499): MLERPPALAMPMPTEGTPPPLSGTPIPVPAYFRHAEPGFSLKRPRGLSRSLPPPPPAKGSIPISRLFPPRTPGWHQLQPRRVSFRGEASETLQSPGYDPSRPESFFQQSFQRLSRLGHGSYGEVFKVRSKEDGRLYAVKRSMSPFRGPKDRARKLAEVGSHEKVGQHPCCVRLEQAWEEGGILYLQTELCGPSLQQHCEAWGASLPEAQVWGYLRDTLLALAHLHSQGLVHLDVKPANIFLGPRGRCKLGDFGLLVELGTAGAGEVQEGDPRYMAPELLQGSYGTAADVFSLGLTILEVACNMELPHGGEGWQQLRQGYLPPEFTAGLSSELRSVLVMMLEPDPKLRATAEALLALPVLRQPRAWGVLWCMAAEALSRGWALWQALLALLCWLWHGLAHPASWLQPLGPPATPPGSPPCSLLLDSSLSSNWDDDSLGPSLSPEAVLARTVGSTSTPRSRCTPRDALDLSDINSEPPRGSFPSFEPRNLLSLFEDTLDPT
As to the kind of experiment: AlphaLISA assay, Myt1 kinase target engagement (phospho-CDK1 Thr14) in ACHN cells. In kind it is cell-based. The settings on record: ACHN cells (marked *); 4 h treatment. The procedure: Each of an ACHN renal cell carcinoma cell line (ATCC) and a DAOY medulloblastoma cell line, and an A427 lung cancer line were cultured in Minimum Essential Medium Eagle supplemented with 10% fetal calf serum (Sigma), 1% Penicillin-Streptomycin and 10 mM HEPES buffer (HyClone). Cell cultures were kept in a humidified incubator at 37 °C and 5% CO2. Cells were routinely tested for Mycoplasma contamination.
For target engagement assessment of Myt1 kinase inhibition, quantification of Cdk1 phosphorylated on threonine 14 was detected using the AlphaLISA® SureFire® Ultra™ Human Phospho-CDK1 (Thr14) assay (Perkin Elmer). DAOY or ACHN cells were seeded into tissue culture treated 96-well plates (VWR) to a density of 10,000 or 20,000 cells per well respectively. 24 h post seeding cells were treated for 4 h with compounds at concentrations ranging from 7 to 5000 nM. Cells were washed with PBS and lysed in 50 μl AlphaLISA lysis buffer before freezing at −80 C. Ten ul of the lysate was transferred to 384 well plates and incubated with AlphaLISA donor and acceptor beads according to the manufacturer's instructions. Dose response curves and EC50 values were calculated and visualized using GraphPad Prism version 9. Target engagement for Myt1 kinase can also be measured using the same AlphaLISA assay in OVCAR3 cells, an ovarian cancer cell line. NIH:OVCAR-3 (OVCAR3) cells are cultured in RPMI-1640 medium supplemented with 0.01 mg/ml insulin, 20% FBS, 1% Penicillin-Streptomycin and 10 mM HEPES buffer. 14,000 cells per well are seeded into 96 well tissue culture plates in full medium. Twenty-four hours post seeding, cells are treated with compound for 4 hours at concentrations ranging from 0.017 nM to 1000 nM.
(In general: In Alpha technology, singlet oxygen from a donor bead excites a nearby acceptor bead.)

Another assay relates to ACHN cells. As to the kind of experiment: Cell Titer Glo viability assay, ACHN cells. In kind it is cell-based. The settings on record: Homo sapiens, 144 h, absolute EC50. A digest of the protocol: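 Cells grown in MEM with 10% FCS were seeded at 500 (A427), 400 (ACHN) or 250 (DAOY) per well and treated the next day with compound at 17 to 10 000 nM. Viability relative to untreated control was read at 144 h by CellTiter-Glo 2.0.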
On the technique in general: In ATP-based viability assays light output follows the ATP content of the culture.

For assay [2], the target named is T2, recombinant human Wee1A kinase (Homo sapiens, UniProt P30291).
T2 construct: full length Wee1 kinase was expressed by baculovirus in insect cells; purchased Invitrogen PV3817; host or cells: insect cells (baculovirus)
T2 sequence (P30291 whole entry): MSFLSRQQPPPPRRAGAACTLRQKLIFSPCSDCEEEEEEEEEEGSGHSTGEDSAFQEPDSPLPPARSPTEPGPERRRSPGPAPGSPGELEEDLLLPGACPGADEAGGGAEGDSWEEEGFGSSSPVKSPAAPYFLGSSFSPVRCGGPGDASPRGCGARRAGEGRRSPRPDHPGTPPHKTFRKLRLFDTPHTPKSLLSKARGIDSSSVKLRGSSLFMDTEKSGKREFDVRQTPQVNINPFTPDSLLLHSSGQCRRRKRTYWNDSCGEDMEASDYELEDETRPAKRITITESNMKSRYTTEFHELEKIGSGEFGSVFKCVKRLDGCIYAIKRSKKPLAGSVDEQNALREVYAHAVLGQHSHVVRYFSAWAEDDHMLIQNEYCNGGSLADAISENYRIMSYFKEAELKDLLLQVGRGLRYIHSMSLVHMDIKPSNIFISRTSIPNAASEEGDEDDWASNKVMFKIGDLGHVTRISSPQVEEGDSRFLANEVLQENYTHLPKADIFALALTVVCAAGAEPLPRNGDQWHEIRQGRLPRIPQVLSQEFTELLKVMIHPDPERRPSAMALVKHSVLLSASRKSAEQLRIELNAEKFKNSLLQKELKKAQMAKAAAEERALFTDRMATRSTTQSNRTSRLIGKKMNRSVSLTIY
Kind of assay: Wee1A kinase binding assay (LanthaScreen Eu time-resolved FRET). The settings on record: 30 nM tracer 178, 5 nM Wee1A kinase, 2 nM Eu-labeled antibody; 60 minutes at room temperature; read-out: Wee1A kinase Binding IC50. A digest of the protocol: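 Full-length, baculovirus-expressed GST-tagged Wee1A (5 nM) was mixed with 2 nM Eu-anti-GST antibody, 30 nM kinase tracer 178 and compound (1% DMSO). Buffer was 50 mM HEPES pH 7.5, 10 mM MgCl2, 1 mM EGTA, 0.01% Brij-35, incubated 60 min at room temperature. TR-FRET 665/615 nm emission ratios from duplicates were curve-fitted.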
In general terms: Time-resolved FRET reads energy transfer from a long-lived donor to a nearby acceptor.

Assay [3] has as its target T3, Wee1A kinase (CDK1 Tyr15 phosphorylation in ACHN renal cell carcinoma cells) (Homo sapiens, UniProt P30291).
T3 construct: pCDK1 Tyr15 immunofluorescence read-out
As to the kind of experiment: High-content imaging of pCdk1 Y15, Wee1A kinase target engagement in ACHN cells. Type of assay: cell-based. The settings on record: 4 h treatment, nuclear positivity for pCdk1 Y15 vs DMSO control, read-out: CDK1 Tyr15 Phosphorylation EC50. A digest of the protocol: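 EC50 values come from the per-well fraction of cells with nuclear pCdk1 Y15 staining, normalised to DMSO control, by automated immunofluorescence imaging. Cells were ACHN renal carcinoma, treated 4 h with compound at 7–5,000 nM or 0.3–200 nM.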

Assay [4] deals with T4, Myt1 kinase (recombinant PMYT-1) (Homo sapiens, UniProt Q99640).
T4 construct: full length PMYT-1 was expressed by baculovirus in insect cells; purchased Invitrogen A30984; host or cells: insect cells (baculovirus)
T4 sequence (Q99640 1-499): T1 sequence (Q99640 1-499)
As to the kind of experiment: Myt1 kinase binding assay (LanthaScreen Eu Kinase Binding Assay). The settings on record: 3 nM tracer 178, 2.5 nM PMYT-1, 1 nM Eu-labeled antibody; read-out: Myt1 kinase Binding IC50. A digest of the protocol:
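Compound binding to Myt1 kinase was assessed using the LanthaScreen Eu Kinase Binding Assay. This europium-based binding format was applied to quantify how strongly each compound bound to the Myt1 enzyme, and the binding affinity was reported for each compound as an IC50 value.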

The source of these data is patent US20260364080A1, “PYRAZOLO-PYRIMIDINONE COMPOUNDS FOR USE IN METHODS OF INHIBITING WEE1 A KINASE” (Acrivon Therapeutics, Inc., priority 2023, published 2026).

T3 sequence (P30291 whole entry): as above

`C=CCn1c(=O)c2cnc(Nc3ccc4c(cnn4C)c3)nc2n1-c1cccc(OC2CCCN(C)CC2)n1` (single isomer, unassigned) [Compound 373]: the values for the EC50 (in assay [1]; in the assay with ACHN cells; in assay [3]) were 200 to 500 nM, not above 100 nM and less than 100 nM, respectively. In addition, the results for the IC50 in assay [2] and in assay [4] were less than 10 nM and less than 20 nM, respectively.

Regarding `C=CCn1c(=O)c2cnc(Nc3ccc4c(cnn4C)c3)nc2n1-c1cccc(O[C@@H]2CCN(C)[C@@H](C)C2)n1` (stereo in doubt) [Compound 403, rel-2-allyl-1-(6-(((2R,4S)-1,2-dimethylpiperidin-4-yl)oxy)pyridin-2-yl)-6-((1-methyl-1H-indazol-5-yl)amino)-1,2-dihydro-3H-pyrazolo[3,4-d]pyrimidin-3-one], the EC50 (usually the concentration giving half of the maximal effect) in assay [1] is less than 200 nM; in the assay with ACHN cells it was not above 100 nM; in assay [3], less than 100 nM. In addition, the values for the IC50 in assay [2] and in assay [4] were less than 10 nM and 20 to 100 nM, respectively.

Turning to `C=CCn1c(=O)c2cnc(Nc3ccc4c(cnn4C)c3)nc2n1-c1cccc(NC2CCN(C)CC2)n1` [Compound 129, 6-[(1-methyl-1H-indazol-5-yl)amino]-1-{6-[(1-methylpiperidin-4-yl)amino]pyridin-2-yl}-2-(prop-2-en-1-yl)-1H,2H,3H-pyrazolo[3,4-d]pyrimidin-3-one], the EC50 is more than 1000 nM in assay [1], not above 100 nM with ACHN cells and less than 100 nM in assay [3]. Besides, the half-maximal inhibitory concentration (IC50) (in general, the midpoint of a concentration-inhibition curve) in assay [2] was less than 10 nM; in assay [4] it was 100 to 500 nM.

As to `C=CCn1c(=O)c2cnc(Nc3ccc(F)c(C)c3)nc2n1-c1cccc(OC2CCN(C)CC2)n1` [Compound 206, 6-[(4-fluoro-3-methylphenyl)amino]-1-{6-[(1-methylpiperidin-4-yl)oxy]pyridin-2-yl}-2-(prop-2-en-1-yl)-1H,2H,3H-pyrazolo[3,4-d]pyrimidin-3-one], the 50% effective concentration (EC50) in assay [1] was 200 to 500 nM; in the assay on ACHN cells, not above 100 nM; in assay [3], less than 100 nM. Besides, the IC50 was less than 10 nM in assay [2] and 20 to 100 nM in assay [4].

Take `CCn1c(=O)c2cnc(Nc3ccc(-c4cnn(C)c4)cc3)nc2n1-c1cccc(OC2CCN(C)CC2)n1` [Compound 277, 2-ethyl-1-[6-(1-methyl-4-piperidyloxy)-2-pyridyl]-6-[p-(1-methyl-4-pyrazolyl)phenylamino]-1,2-dihydro-3H-1,2,5,7-tetraazainden-3-one]: the results for the EC50 (in assay [1]; in the assay on ACHN cells; in assay [3]) were less than 200 nM, not above 100 nM and less than 100 nM, respectively. Further, the IC50 is less than 10 nM in assay [2] and 20 to 100 nM in assay [4].

`C=CCn1c(=O)c2cnc(Nc3ccc(N4CCOCC4)cc3)nc2n1-c1cccc(OC2CCN(C)CC2)n1` [Compound 278, 2-allyl-1-(6-((1-methylpiperidin-4-yl)oxy)pyridin-2-yl)-6-((4-morpholinophenyl)amino)-1,2-dihydro-3H-pyrazolo[3,4-d]pyrimidin-3-one]: the EC50 in assay [1] was less than 200 nM; in the assay on ACHN cells it was not above 100 nM; in assay [3], less than 100 nM. The IC50 was less than 10 nM in assay [2] and 20 to 100 nM in assay [4].

Turning to `C=CCn1c(=O)c2cnc(Nc3ccc4c(cnn4C)c3)nc2n1-c1ccnc(OC2CCN(C)CC2)n1` [Compound 279, 2-allyl-6-((1-methyl-1H-indazol-5-yl)amino)-1-(2-((1-methylpiperidin-4-yl)oxy)pyrimidin-4-yl)-1,2-dihydro-3H-pyrazolo[3,4-d]pyrimidin-3-one], the 50% effective concentration (EC50) in assay [1] is 200 to 500 nM; with ACHN cells, not above 100 nM; in assay [3] it was less than 100 nM. In addition, the IC50 was less than 10 nM in assay [2] and 20 to 100 nM in assay [4].

Consider `C=CCn1c(=O)c2cnc(Nc3ccc4c(cnn4CC)c3)nc2n1-c1cccc(OC2CCNCC2)n1` [Compound 280, 2-allyl-6-((1-ethyl-1H-indazol-5-yl)amino)-1-(6-(piperidin-4-yloxy)pyridin-2-yl)-1,2-dihydro-3H-pyrazolo[3,4-d]pyrimidin-3-one], for which the EC50 is 200 to 500 nM in assay [1], not above 100 nM with ACHN cells and less than 100 nM in assay [3]. Moreover, the figures for the IC50 in assay [2] and in assay [4] were less than 10 nM and less than 20 nM, respectively.

Consider `[2H]C([2H])([2H])N1CCC(Oc2cccc(-n3c4nc(Nc5ccc6c(cnn6C(C)C)c5)ncc4c(=O)n3CC=C)n2)CC1` [Compound 354, 2-allyl-6-(1-isopropyl-1H-indazol-5-ylamino)-1-(6-{1-[(^2H3)methyl]-4-piperidyloxy}-2-pyridyl)-1,2-dihydro-3H-1,2,5,7-tetraazainden-3-one], for which the values for the EC50 (in assay [1]; in the assay on ACHN cells; in assay [3]) were less than 200 nM, not above 100 nM and less than 100 nM, respectively. The IC50 in assay [4] is less than 20 nM.

Regarding `C=CCn1c(=O)c2cnc(Nc3ccc4c(cnn4C)c3)nc2n1-c1cccc(OC2CCCN(C)CC2)n1` (stereo not drawn) [Compound 361], the 50% effective concentration (EC50) in assay [1] is 200 to 500 nM; in the assay on ACHN cells, not above 100 nM; in assay [3], less than 100 nM. Further, in assay [2], the IC50 is less than 10 nM.

For the compound `C=CCn1c(=O)c2cnc(Nc3ccc(OCCF)nc3)nc2n1-c1cccc(OC2CCN(C)CC2)n1` [Compound 399, 2-allyl-6-((6-(2-fluoroethoxy)pyridin-3-yl)amino)-1-(6-((1-methylpiperidin-4-yl)oxy)pyridin-2-yl)-1,2-dihydro-3H-pyrazolo[3,4-d]pyrimidin-3-one], the EC50 in assay [1] is less than 200 nM; in assay [3], less than 100 nM. Besides, the IC50 is less than 10 nM in assay [2] and less than 20 nM in assay [4].

With `C=CCn1c(=O)c2cnc(Nc3ccc4c(cnn4C(C)C)c3)nc2n1-c1ccnc(OC2CCN(C)CC2)n1` [Compound 401, 2-allyl-6-((1-isopropyl-1H-indazol-5-yl)amino)-1-(2-((1-methylpiperidin-4-yl)oxy)pyrimidin-4-yl)-1,2-dihydro-3H-pyrazolo[3,4-d]pyrimidin-3-one], the EC50 in assay [1] was less than 200 nM; in assay [3] it was less than 100 nM. Besides, the IC50 in assay [2] was less than 10 nM; in assay [4], less than 20 nM.

Regarding `C=CCn1c(=O)c2cnc(Nc3cnc4c(cnn4C(C)C)c3)nc2n1-c1cccc(OC2CCN(C)CC2)n1` [Compound 406, 2-allyl-6-((1-isopropyl-1H-pyrazolo[3,4-b]pyridin-5-yl)amino)-1-(6-((1-methylpiperidin-4-yl)oxy)pyridin-2-yl)-1,2-dihydro-3H-pyrazolo[3,4-d]pyrimidin-3-one], the values for the EC50 in assay [1] and in assay [3] were less than 200 nM and less than 100 nM, respectively. In addition, the IC50 was less than 10 nM in assay [2] and less than 20 nM in assay [4].
